Values after ≈ are worked out from the molar mass of the structure shown.

Common to all, as to assay type: physicochemical
Data set [1] is described as follows: Solubility in vehicles for micelles, co-solvents and lipid emulsion preparations. From the text: (§1) The present invention can be disclosed in more detail as follows. Since N-(3-chloro-4-morpholin-4-yl)phenyl-N′-hydroxyimidoformamidine was unstable in an acidic solution, solubilization by forming it into an acidic salt thereof was not proper. Furthermore, the solubility of N-(3-chloro-4-morpholin-4-yl)phenyl-N′-hydroxyimidoformamidine in 5% Tween 80, 10% polyethylene glycol, soybean oil and olive oil, which were used for forming it into micelles, co-solvents and lipid emulsion preparations, was not more than 0.5 mg/mL at 25° C. and was insufficient for forming it into these micelles, co-solvents and lipid emulsion preparations. […] Based on this unpredictable finding in which in the case of the sulfobutyl ether β-cyclodextrin solution, the drug is stable over light exposure and thus, it is convenient for actual use without a special care such as shading, the present invention has been accomplished.

A further data set in a line: Solubilization test. The following applies: 25° C. The procedure:
An excess amount of N-(3-chloro-4-morpholin-4-yl)phenyl-N′-hydroxyimidoformamidine was added to 10% and 20% aqueous solutions of sulfobutyl ether β-cyclodextrin sodium salt (Captisol (trade name); average substitution degree is about 7) and purified water as a control, respectively. After shaking on a water bath adjusted at 25° C. for one day, the solubility of the drug was measured.

A short description of data set [2]: Stability in acidic solution.
From the text: as §1

The solubility is the dissolved amount per volume that the medium holds. For the compound `ON=CNc1ccc(N2CCOCC2)c(Cl)c1` [N-(3-chloro-4-morpholin-4-yl)phenyl-N′-hydroxyimidoformamidine], the solubility entry was “not more than 0.5 mg/mL” in data set [1] (5% Tween 80, 25° C.); “not more than 0.5 mg/mL” in data set [1] (10% polyethylene glycol, 25° C.); “not more than 0.5 mg/mL” in data set [1] (olive oil, 25° C.); “not more than 0.5 mg/mL” in data set [1] (soybean oil, 25° C.); 3570 µg/mL in “Solubilization test” (10% aqueous solution of sulfobutyl ether β-cyclodextrin sodium salt); 7670 µg/mL in the data set “Solubilization test” (20% aqueous solution of sulfobutyl ether β-cyclodextrin sodium salt). Besides, the solubility in “Solubilization test” (purified water (control), shaking one day) is 80 µg/mL (≈ 313 µM). Also, in data set [2], the “stability in an acidic solution” value is on record as “unstable”.

The values above are taken from patent publication US6818662B2, “Pharmaceutical composition” (Taisho Pharmaceutical Co., Ltd., priority 2002, dated 2004).
